Measured values reported in PubChem BioAssay AID1963963 (Molecular Pharmacology Branch, DTP, NCI, 2024).
Values belong to the compound of their own block, whether it stands above or below them.

Tested on: 958667-338-R-J2-PDC tumor spheroids viability
Assay: Anticancer human tumor 958667-338-R-J2-PDC patient-derived colon adenocarcinoma cell line growth inhibition [PI3K]
Conditions: spheroids with HUVEC and MSC; for IC50: curve of first compound; for viability, T/C: stronger effect = lower value
Procedure, shortened: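 Stroma-containing spheroids: tumor line, pooled-donor HUVEC, hMSC. Treatments: targeted agents with PI3K inhibitors. Dosing: clinically relevant, half-log spacing, 10 microM ceiling without known Cmax. Read-out: cell viability.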

[1] = second compound 0.0316 µM, first compound 0.0316 µM
[2] = second compound 0.0316 µM, first compound 0.1 µM
[3] = second compound 0.0316 µM, first compound 0.316 µM
[4] = second compound 0.0316 µM, first compound 1 µM
[5] = second compound 0.0316 µM, first compound 3.16 µM
[6] = second compound 0.0316 µM, first compound 10 µM
[7] = second compound 0.1 µM, first compound 0.0316 µM
[8] = second compound 0.1 µM, first compound 0.1 µM
[9] = second compound 0.1 µM, first compound 0.316 µM
[10] = second compound 0.1 µM, first compound 1 µM
[11] = second compound 0.1 µM, first compound 3.16 µM
[12] = second compound 0.1 µM, first compound 10 µM
[13] = second compound 0.316 µM, first compound 0.0316 µM
[14] = second compound 0.316 µM, first compound 0.1 µM
[15] = second compound 0.316 µM, first compound 0.316 µM
[16] = second compound 0.316 µM, first compound 1 µM
[17] = second compound 0.316 µM, first compound 3.16 µM
[18] = second compound 0.316 µM, first compound 10 µM
[19] = second compound 1 µM, first compound 0.0316 µM
[20] = second compound 1 µM, first compound 0.1 µM
[21] = second compound 1 µM, first compound 0.316 µM
[22] = second compound 1 µM, first compound 1 µM
[23] = second compound 1 µM, first compound 3.16 µM
[24] = second compound 1 µM, first compound 10 µM
[25] = second compound 3.16 µM, first compound 0.0316 µM
[26] = second compound 3.16 µM, first compound 0.1 µM
[27] = second compound 3.16 µM, first compound 0.316 µM
[28] = second compound 3.16 µM, first compound 1 µM
[29] = second compound 3.16 µM, first compound 3.16 µM
[30] = second compound 3.16 µM, first compound 10 µM
[31] = second compound 10 µM, first compound 0.0316 µM
[32] = second compound 10 µM, first compound 0.1 µM
[33] = second compound 10 µM, first compound 0.316 µM
[34] = second compound 10 µM, first compound 1 µM
[35] = second compound 10 µM, first compound 3.16 µM
[36] = second compound 10 µM, first compound 10 µM
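Also: spheroids exposed to compounds for seven days before readout.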

IC50 (second compound 0.0316 µM): > 10 µM
IC50 (second compound 0.1 µM): > 10 µM
IC50 (second compound 0.316 µM): > 10 µM
IC50 (second compound 1 µM): 4.15 µM
IC50 (second compound 3.16 µM): 1.79 µM
IC50 (second compound 10 µM): 0.368 µM
SMILES: C#Cc1c(F)ccc2cc(O)cc(-c3ncc4c(N5CC6CCC(C5)N6)nc(OCC56CCCN5CC(F)C6)nc4c3F)c12 (centres undefined) + Cc1nc(NC(=O)N2CCCC2C(N)=O)sc1-c1ccnc(C(C)(C)C(F)(F)F)c1
viability, T/C [1]: 82.9%
viability, T/C [2]: 83.3%
viability, T/C [3]: 79.5%
viability, T/C [4]: 95.8%
viability, T/C [5]: 67.7%
viability, T/C [6]: 70.6%
viability, T/C [7]: 70.9%
viability, T/C [8]: 79.6%
viability, T/C [9]: 93.5%
viability, T/C [10]: 87.1%
viability, T/C [11]: 76.8%
viability, T/C [12]: 57.3%
viability, T/C [13]: 93.9%
viability, T/C [14]: 109%
viability, T/C [15]: 69%
viability, T/C [16]: 56.2%
viability, T/C [17]: 82.1%
viability, T/C [18]: 52.5%
viability, T/C [19]: 82.8%
viability, T/C [20]: 82.6%
viability, T/C [21]: 67.3%
viability, T/C [22]: 65.7%
viability, T/C [23]: 52%
viability, T/C [24]: 41.4%
viability, T/C [25]: 72.1%
viability, T/C [26]: 59.9%
viability, T/C [27]: 75.2%
viability, T/C [28]: 50.2%
viability, T/C [29]: 46.1%
viability, T/C [30]: 29.4%
viability, T/C [31]: 60.1%
viability, T/C [32]: 47.5%
viability, T/C [33]: 43.9%
viability, T/C [34]: 49.6%
viability, T/C [35]: 34.1%
viability, T/C [36]: 1.14%

IC50 (second compound 0.0316 µM): > 10 µM
IC50 (second compound 0.1 µM): > 10 µM
IC50 (second compound 0.316 µM): > 10 µM
IC50 (second compound 1 µM): > 10 µM
IC50 (second compound 3.16 µM): > 10 µM
IC50 (second compound 10 µM): > 10 µM
SMILES: C=CC(=O)N1CCN(c2nc(=O)n(-c3c(C)ccnc3C(C)C)c3nc(-c4c(O)cccc4F)c(F)cc23)C(C)C1 (centres undefined) + Cc1nc(NC(=O)N2CCCC2C(N)=O)sc1-c1ccnc(C(C)(C)C(F)(F)F)c1
viability, T/C [1]: 94.5%
viability, T/C [2]: 100%
viability, T/C [3]: 96.8%
viability, T/C [4]: 114%
viability, T/C [5]: 126%
viability, T/C [6]: 112%
viability, T/C [7]: 94.8%
viability, T/C [8]: 111%
viability, T/C [9]: 96.6%
viability, T/C [10]: 110%
viability, T/C [11]: 129%
viability, T/C [12]: 107%
viability, T/C [13]: 97.9%
viability, T/C [14]: 86.9%
viability, T/C [15]: 94.7%
viability, T/C [16]: 113%
viability, T/C [17]: 94.7%
viability, T/C [18]: 84.7%
viability, T/C [19]: 94%
viability, T/C [20]: 76.7%
viability, T/C [21]: 107%
viability, T/C [22]: 83%
viability, T/C [23]: 88.5%
viability, T/C [24]: 85.2%
viability, T/C [25]: 80.4%
viability, T/C [26]: 73.5%
viability, T/C [27]: 68.6%
viability, T/C [28]: 73.3%
viability, T/C [29]: 93.5%
viability, T/C [30]: 82.2%
viability, T/C [31]: 69.1%
viability, T/C [32]: 60.5%
viability, T/C [33]: 48.8%
viability, T/C [34]: 63.5%
viability, T/C [35]: 65.8%
viability, T/C [36]: 68.9%
